Data on eleven compounds can be found in PubChem BioAssay (NCI).

Among the test systems are BT-549 breast; HL-60(TB) leukemia; HOP-62 NSCLC; K-562 leukemia; LOX IMVI melanoma; M14 melanoma; MOLT-4 leukemia; NCI-H522 lung; SNB-19 CNS; UACC-62 melanoma.
Test in all cases: inhibition of tumour cell growth, NCI panel, 48 h

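Cultured in 96-well plates, cells were exposed to test compound for 48 hours across five concentrations. Here, GI50 denotes the concentration required for 50% inhibition of growth. The concentration for full growth arrest is given as TGI.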 Where only a bound is given, the exact number is not on record here.

With `NS(=O)(=O)c1ccc(C(=O)O)cc1`, the TGI in the assay with BT-549 breast, in the assay with HL-60(TB) leukemia, with HOP-62 NSCLC, in the assay with K-562 leukemia, in the assay on LOX IMVI melanoma and in the assay on M14 melanoma was above 100 µM each time. Besides, the TGI with MOLT-4 leukemia, in the assay on NCI-H522 lung, with SNB-19 CNS and with UACC-62 melanoma was above 100 µM each time.

As to `ClCCN(CC#CCCCC#CCN(CCCl)CCCl)CCCl`, the TGI with HL-60(TB) leukemia was determined as 7.18 µM; in the assay with HOP-62 NSCLC, 29.3 µM; with K-562 leukemia, 37.7 µM; with LOX IMVI melanoma it was 20.9 µM; with M14 melanoma it was 28.6 µM; with MOLT-4 leukemia, 6.59 µM. In addition, the TGI with NCI-H522 lung is 21.7 µM; in the assay with SNB-19 CNS, 27.6 µM; in the assay on UACC-62 melanoma, 20 µM.

As for `CC1(C)CCc2cc3c(cc2O1)OC(C)(C)CC3=O`, the TGI in the assay with HL-60(TB) leukemia, in the assay on HOP-62 NSCLC, with K-562 leukemia, with LOX IMVI melanoma, with M14 melanoma and in the assay on MOLT-4 leukemia was above 100 µM in each case. The TGI in the assay on NCI-H522 lung and in the assay with UACC-62 melanoma was above 100 µM each time.

On to `Cc1c2ccccc2c(CSC(=N)N)c2ccccc12`, for which the TGI in the assay with BT-549 breast came to 3.72 µM; in the assay with HL-60(TB) leukemia, 0.343 µM; with HOP-62 NSCLC, 1.99 µM; in the assay on K-562 leukemia, 1.4 µM; with LOX IMVI melanoma, 1.06 µM; in the assay on M14 melanoma, 0.537 µM. Also, the TGI in the assay on MOLT-4 leukemia worked out at 0.127 µM; with NCI-H522 lung, 0.196 µM; in the assay on SNB-19 CNS it was 1.39 µM; with UACC-62 melanoma, 0.408 µM.

Regarding `N=C(N)SC(c1ccccc1)c1ccccc1`, the TGI with BT-549 breast was determined as 37.2 µM; in the assay on HL-60(TB) leukemia, 36.8 µM; with HOP-62 NSCLC it was 41.1 µM; in the assay with K-562 leukemia it was 85.3 µM; with LOX IMVI melanoma, 30.7 µM; in the assay on M14 melanoma, 23.7 µM. The TGI in the assay on MOLT-4 leukemia was 56.6 µM; with NCI-H522 lung, 34.8 µM; in the assay on SNB-19 CNS, above 100 µM; with UACC-62 melanoma, 30.8 µM.

`CC(C)(c1ccccc1)c1ccc(Oc2ccc3c(c2)-c2nc-3nc3[nH]c(nc4nc(nc5[nH]c(n2)c2ccc(Oc6ccc(C(C)(C)c7ccccc7)cc6)cc52)-c2cc(Oc5ccc(C(C)(C)c6ccccc6)cc5)ccc2-4)c2ccc(Oc4ccc(C(C)(C)c5ccccc5)cc4)cc32)cc1`: the TGI in the assay on HL-60(TB) leukemia, in the assay on HOP-62 NSCLC, in the assay with K-562 leukemia, with LOX IMVI melanoma, in the assay with M14 melanoma and in the assay with MOLT-4 leukemia was above 100 µM throughout. The TGI in the assay on NCI-H522 lung, with SNB-19 CNS and in the assay with UACC-62 melanoma was above 100 µM each time.

As for `Cn1c(=O)c2c(nc(N3CCOCC3)n2CCCNCC(O)c2ccc(O)c(O)c2)n(C)c1=O` (stereo unspecified), the TGI in the assay on BT-549 breast, with HOP-62 NSCLC, with K-562 leukemia, in the assay on LOX IMVI melanoma, in the assay with M14 melanoma and in the assay on MOLT-4 leukemia was above 100 µM each time. The TGI in the assay with NCI-H522 lung, in the assay with SNB-19 CNS and with UACC-62 melanoma was above 100 µM each time.

Regarding `CC(C)C(C)C(O)C(O)C(C)C1CCC2C3COC(=O)C4CC(O)C(O)CC4(C)C3CCC12C` (stereo unspecified), the TGI with BT-549 breast is above 100 µM; in the assay on K-562 leukemia it was above 100 µM; with LOX IMVI melanoma, above 100 µM; in the assay on M14 melanoma it was above 100 µM; with MOLT-4 leukemia, 59.1 µM; in the assay on NCI-H522 lung, above 100 µM. Besides, the TGI with SNB-19 CNS and in the assay with UACC-62 melanoma was above 100 µM throughout.

Consider `CC1OC1P(=O)(O)O` (stereo unspecified), for which the TGI in the assay with BT-549 breast, in the assay on HOP-62 NSCLC, in the assay with K-562 leukemia, in the assay with LOX IMVI melanoma, in the assay with MOLT-4 leukemia and in the assay with SNB-19 CNS was above 100 µM in each case. The same compound had a TGI with UACC-62 melanoma above 100 µM.

As for `Cn1ncc2c(=O)[nH]c(-c3ccccc3)nc21`, the TGI in the assay with HL-60(TB) leukemia, in the assay on K-562 leukemia, with LOX IMVI melanoma, with M14 melanoma, in the assay with MOLT-4 leukemia and in the assay on NCI-H522 lung was above 100 µM each time. Also, the TGI in the assay with SNB-19 CNS and in the assay with UACC-62 melanoma was above 100 µM in each case.

Take `Cc1cc(N2CCCCC2)nc(NCc2cc(Nc3ccnc4cc(Cl)ccc34)ccc2F)n1`: the GI50 with HL-60(TB) leukemia was 1930 nM; in the assay with HOP-62 NSCLC it was 1400 nM; in the assay with K-562 leukemia, 2070 nM; with LOX IMVI melanoma, 1730 nM; with M14 melanoma, 1920 nM; in the assay on MOLT-4 leukemia it was 1670 nM. For the same compound, the results for the GI50 in the assay with NCI-H522 lung, with SNB-19 CNS and with UACC-62 melanoma were 1710 nM, 1870 nM and 1620 nM, respectively. Besides, the TGI in the assay with HL-60(TB) leukemia was determined as 3.97 µM; with HOP-62 NSCLC, 2.89 µM; in the assay on K-562 leukemia, 5.17 µM; in the assay on LOX IMVI melanoma, 3.29 µM; with M14 melanoma it was 3.69 µM; in the assay with MOLT-4 leukemia, 4.82 µM. The results for the TGI in the assay on NCI-H522 lung, in the assay on SNB-19 CNS and in the assay with UACC-62 melanoma were 3.37 µM, 6.33 µM and 3.44 µM, respectively.
